In patent EP0584797A2, “Novel cephalosporin compounds and processes for the preparation thereof” (LUCKY LTD., priority 1992, dated 1994):
Values after ≈ are worked out from the molar mass of the structure shown.

Columns and labels:
Test in all cases: minimal inhibitory concentration, two-fold agar dilution
Type in all cases: cell-based
[1] = tested on: Acinetobacter calcoaceticus ATCC 15437; conditions: ATCC15437, Muller-Hinton agar, 37°C, 20 hours, read-out: MIC values against the standard strains
In short: (§1)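 Compounds were serially diluted two-fold into Mueller-Hinton agar, and each plate was spot-inoculated with the test strain at 10⁷ CFU per ml. Plates were incubated at 37°C for 20 hours before MIC values were read.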

[2] = tested on: Bacillus cereus ATCC 11778; conditions: ATCC11778, Muller-Hinton agar, 37°C, 20 hours, read-out: MIC values against the standard strains
In short: as §1

[3] = tested on: Bacillus megaterium ATCC 9885; conditions: Priestia megaterium, ATCC9885; Muller-Hinton agar; 37°C; 20 hours; read-out: MIC values against the standard strains
In short: as §1

[4] = tested on: Citrobacter freundii ATCC 8090; conditions: ATCC8090, Muller-Hinton agar, 37°C, 20 hours, read-out: MIC values against the standard strains
In short: as §1

[5] = tested on: Enterobacter aerogenes ATCC 29751; conditions: Klebsiella aerogenes, ATCC29751; Muller-Hinton agar; 37°C; 20 hours; read-out: MIC values against the standard strains
In short: as §1

[6] = tested on: Enterobacter cloacae ATCC 27508; conditions: ATCC27508, Muller-Hinton agar, 37°C, 20 hours, read-out: MIC values against the standard strains
In short: as §1

[7] = tested on: Escherichia coli ATCC 10536; conditions: ATCC10536, Muller-Hinton agar, 37°C, 20 hours, read-out: MIC values against the standard strains
In short: as §1

[8] = tested on: Escherichia coli ATCC 25922; conditions: ATCC25922, Muller-Hinton agar, 37°C, 20 hours, read-out: MIC values against the standard strains
In short: as §1

[9] = tested on: Klebsiella pneumoniae ATCC 10031; conditions: ATCC10031, Muller-Hinton agar, 37°C, 20 hours, read-out: MIC values against the standard strains
In short: as §1

[10] = tested on: Micrococcus luteus ATCC 9341; conditions: ATCC9341, Muller-Hinton agar, 37°C, 20 hours, read-out: MIC values against the standard strains
In short: as §1

[11] = tested on: Morganella morganii ATCC 8076h; conditions: ATCC8076H, Muller-Hinton agar, 37°C, 20 hours, read-out: MIC values against the standard strains
In short: as §1

[12] = tested on: Proteus mirabilis ATCC 25933; conditions: ATCC25933, Muller-Hinton agar, 37°C, 20 hours, read-out: MIC values against the standard strains
In short: as §1

[13] = tested on: Proteus vulgaris ATCC 6059; conditions: ATCC6059, Muller-Hinton agar, 37°C, 20 hours, read-out: MIC values against the standard strains
In short: as §1

[14] = tested on: Providencia rettgeri ATCC 9250; conditions: ATCC9250, Muller-Hinton agar, 37°C, 20 hours, read-out: MIC values against the standard strains
In short: as §1

[15] = tested on: Pseudomonas aeruginosa ATCC 10145; conditions: ATCC10145, Muller-Hinton agar, 37°C, 20 hours, read-out: MIC values against the standard strains
In short: as §1

[16] = tested on: Pseudomonas aeruginosa ATCC 25619; conditions: ATCC25619, Muller-Hinton agar, 37°C, 20 hours, read-out: MIC values against the standard strains
In short: as §1

[17] = tested on: Pseudomonas aeruginosa ATCC 27853; conditions: ATCC27853, Muller-Hinton agar, 37°C, 20 hours, read-out: MIC values against the standard strains
In short: as §1

[18] = tested on: Salmonella typhimurium ATCC 14028; conditions: Salmonella enterica; Muller-Hinton agar; 37°C; 20 hours; read-out: MIC values against the standard strains
In short: as §1

[19] = tested on: Serratia marcescens ATCC 27117; conditions: ATCC27117, Muller-Hinton agar, 37°C, 20 hours, read-out: MIC values against the standard strains
In short: as §1

[20] = tested on: Shigella flexneri ATCC 11836; conditions: ATCC11836, Muller-Hinton agar, 37°C, 20 hours, read-out: MIC values against the standard strains
In short: as §1

[21] = tested on: Shigella sonnei ATCC 11060; conditions: ATCC11060, Muller-Hinton agar, 37°C, 20 hours, read-out: MIC values against the standard strains
In short: as §1

[22] = tested on: Staphylococcus aureus ATCC 10537; conditions: ATCC10537, Muller-Hinton agar, 37°C, 20 hours, read-out: MIC values against the standard strains
In short: as §1

[23] = tested on: Staphylococcus aureus ATCC 6538p; conditions: ATCC6538P, Muller-Hinton agar, 37°C, 20 hours, read-out: MIC values against the standard strains
In short: as §1

[24] = tested on: Staphylococcus epidermidis ATCC 12228; conditions: ATCC12228, Muller-Hinton agar, 37°C, 20 hours, read-out: MIC values against the standard strains
In short: as §1

[25] = tested on: Streptococcus faecalis ATCC 29212; conditions: Enterococcus faecalis, ATCC29212; Muller-Hinton agar; 37°C; 20 hours; read-out: MIC values against the standard strains
In short: as §1

## CO/N=C(\C(=O)N[C@@H]1C(=O)N2C(C(=O)[O-])=C(CSc3nc(N)c(N)c(N)[n+]3C)CS[C@H]12)c1csc(N)n1 [Example 7, 7-[(Z)-2-(2-aminothiazol-4-yl)-2-(methoxyimino)acetamido]-3-(4,5,6-triamino-1-methylpyrimidinium-2-yl)thiomethyl-3-cephem-4-carboxylate]
[1]
  MIC: 4 µg/mL (≈ 7.06 µM)
[2]
  MIC: 16 µg/mL (≈ 28.2 µM)
[3]
  MIC: 0.13 µg/mL (≈ 0.229 µM)
[4]
  MIC: 0.063 µg/mL (≈ 0.111 µM)
[5]
  MIC: ≤ 0.008 µg/mL
[6]
  MIC: 0.063 µg/mL (≈ 0.111 µM)
[7]
  MIC: 0.063 µg/mL (≈ 0.111 µM)
[8]
  MIC: 0.063 µg/mL (≈ 0.111 µM)
[9]
  MIC: 0.016 µg/mL (≈ 0.0282 µM)
[10]
  MIC: 0.063 µg/mL (≈ 0.111 µM)
[11]
  MIC: ≤ 0.008 µg/mL
[12]
  MIC: 0.13 µg/mL (≈ 0.229 µM)
[13]
  MIC: 0.13 µg/mL (≈ 0.229 µM)
[14]
  MIC: ≤ 0.008 µg/mL
[15]
  MIC: 32 µg/mL (≈ 56.5 µM)
[16]
  MIC: 4 µg/mL (≈ 7.06 µM)
[17]
  MIC: 32 µg/mL (≈ 56.5 µM)
[18]
  MIC: 0.13 µg/mL (≈ 0.229 µM)
[19]
  MIC: 0.13 µg/mL (≈ 0.229 µM)
[20]
  MIC: 0.031 µg/mL (≈ 0.0547 µM)
[21]
  MIC: 0.13 µg/mL (≈ 0.229 µM)
[22]
  MIC: 0.13 µg/mL (≈ 0.229 µM)
[23]
  MIC: 0.13 µg/mL (≈ 0.229 µM)
[24]
  MIC: 0.13 µg/mL (≈ 0.229 µM)
[25]
  MIC: 128 µg/mL (≈ 226 µM)

## CC[n+]1ccc(N)nc1SCC1=C(C(=O)[O-])N2C(=O)[C@@H](NC(=O)/C(=N\OC(C)(C)C(=O)O)c3csc(N)n3)[C@H]2SC1 [Example 12, 7-[(Z)-2-(2-aminothiazol-4-yl)-2-(carboxyprop-2-oxyimino)acetamido]-3-(4-amino-1-ethylpyrimidinium-2-yl)thiomethyl-3-cephem-4-carboxylate]
[1]
  MIC: 8 µg/mL (≈ 12.8 µM)
[2]
  MIC: 128 µg/mL (≈ 206 µM)
[3]
  MIC: 0.5 µg/mL (≈ 0.803 µM)
[4]
  MIC: 0.13 µg/mL (≈ 0.209 µM)
[5]
  MIC: 2 µg/mL (≈ 3.21 µM)
[6]
  MIC: 0.031 µg/mL (≈ 0.0498 µM)
[7]
  MIC: 0.063 µg/mL (≈ 0.101 µM)
[8]
  MIC: 0.063 µg/mL (≈ 0.101 µM)
[9]
  MIC: ≤ 0.008 µg/mL
[10]
  MIC: 0.5 µg/mL (≈ 0.803 µM)
[11]
  MIC: 0.016 µg/mL (≈ 0.0257 µM)
[12]
  MIC: 1 µg/mL (≈ 1.61 µM)
[13]
  MIC: 1 µg/mL (≈ 1.61 µM)
[14]
  MIC: ≤ 0.008 µg/mL
[15]
  MIC: 16 µg/mL (≈ 25.7 µM)
[16]
  MIC: 2 µg/mL (≈ 3.21 µM)
[17]
  MIC: 8 µg/mL (≈ 12.8 µM)
[18]
  MIC: 1 µg/mL (≈ 1.61 µM)
[19]
  MIC: 0.5 µg/mL (≈ 0.803 µM)
[20]
  MIC: 0.25 µg/mL (≈ 0.401 µM)
[21]
  MIC: 0.5 µg/mL (≈ 0.803 µM)
[22]
  MIC: 2 µg/mL (≈ 3.21 µM)
[23]
  MIC: 4 µg/mL (≈ 6.42 µM)
[24]
  MIC: 2 µg/mL (≈ 3.21 µM)
[25]
  MIC: 64 µg/mL (≈ 103 µM)

## CCO/N=C(\C(=O)N[C@@H]1C(=O)N2C(C(=O)[O-])=C(CSc3nc(N)c(N)c(N)[n+]3C)CS[C@H]12)c1csc(N)n1 [Example 3, 7-[(Z)-2-(aminothiazol-4-yl)-2-(ethoxyimino)acetamido]-3-(4,5,6-triamino-1-methylpyrimidinium-2-yl)thiomethyl-3-cephem-4-carboxylate]
[1]
  MIC: 8 µg/mL (≈ 13.8 µM)
[2]
  MIC: 32 µg/mL (≈ 55.1 µM)
[3]
  MIC: 0.031 µg/mL (≈ 0.0534 µM)
[4]
  MIC: 0.063 µg/mL (≈ 0.108 µM)
[5]
  MIC: 0.5 µg/mL (≈ 0.861 µM)
[6]
  MIC: 0.016 µg/mL (≈ 0.0276 µM)
[7]
  MIC: 0.063 µg/mL (≈ 0.108 µM)
[8]
  MIC: 0.063 µg/mL (≈ 0.108 µM)
[9]
  MIC: ≤ 0.008 µg/mL
[10]
  MIC: 0.031 µg/mL (≈ 0.0534 µM)
[11]
  MIC: ≤ 0.008 µg/mL
[12]
  MIC: 0.25 µg/mL (≈ 0.431 µM)
[13]
  MIC: 0.25 µg/mL (≈ 0.431 µM)
[14]
  MIC: ≤ 0.008 µg/mL
[15]
  MIC: 8 µg/mL (≈ 13.8 µM)
[16]
  MIC: 0.5 µg/mL (≈ 0.861 µM)
[17]
  MIC: 4 µg/mL (≈ 6.89 µM)
[18]
  MIC: 0.5 µg/mL (≈ 0.861 µM)
[19]
  MIC: 0.25 µg/mL (≈ 0.431 µM)
[20]
  MIC: 0.063 µg/mL (≈ 0.108 µM)
[21]
  MIC: 0.25 µg/mL (≈ 0.431 µM)
[22]
  MIC: 0.25 µg/mL (≈ 0.431 µM)
[23]
  MIC: 0.5 µg/mL (≈ 0.861 µM)
[24]
  MIC: 0.13 µg/mL (≈ 0.224 µM)
[25]
  MIC: 64 µg/mL (≈ 110 µM)
